Laboratory results reported in patent US20190184064A1, “Composition for Soft Tissue Augmentation Providing Protection from Infection” (priority 2015, published 2019).

Assays:
[1] = system: Pseudomonas aeruginosa (PAO1); test: Solution exposure of antimicrobial hyaluronic acid hydrogels to living cultures (PAO1); format: cell-based; conditions: 20 μl early phase culture in 980 μl formulation
Protocol: (§1) By way of Examples, the following evaluations were done to assess the performance of the antimicrobial hyaluronic acid gels. Solution exposure of the antimicrobial hyaluronic acid hydrogels immersed in early phase concentrations of 2 test microorganisms were conducted. Additionally, the physical properties of the hydrogels were assessed to determine their shear/thixotropic properties.
(§2) In this study, two strains of bacteria, namely Pseudomonas aeruginosa (PAO1) and Stapylococcus aureus (SA 113) were evaluated for total kill of each of the strains after 4 and 24 hours of exposure to the taurolidine-HA formulation. 20 μl of early phase culture of each strain was placed in 980 μl of each Hyaluronic Acid formulation. Samples of remaining bacteria concentrations were determined for the samples after 4 and 24 hours of exposure. Two controls (with and without HA), and HA gels with 3 different drug concentrations were evaluated. They were also evaluated against a known antimicrobial, gentamicin.

[2] = system: Stapylococcus aureus (SA 113); test: Solution exposure of antimicrobial hyaluronic acid hydrogels to living cultures (SA 113); format: cell-based; conditions: 20 μl early phase culture in 980 μl formulation
Protocol: as §1, §2

For gentamicin, the “PA01 (4 hr) remaining bacteria concentration” value ([1]; 4 hours of exposure) was 0.00E+00, the “PA01 (24 hr) remaining bacteria concentration” value ([1]; 24 hours of exposure) was 0.00E+00 and the “SA113 (4 hr) remaining bacteria concentration” value ([2]; 4 hours of exposure) was 3.77E+02. The “SA113 (24 hr) remaining bacteria concentration” value ([2]; 24 hours of exposure) was 8.33E+00.
